# In article PMC10002220, “In Vivo Reversal of P-Glycoprotein-Mediated Drug Resistance in a Breast Cancer Xenograft and in Leukemia Models Using a Novel, Potent, and Nontoxic Epicatechin EC31” (International Journal of Molecular Sciences, 2023):
# Read-outs that look alike come from different tables or passages of the source.
# Key:
# [1] = Pharmacokinetics of methylated catechin derivatives in plasma; type: in vivo, BALB/c mice; conditions: BALB/c, mouse; for AUC(0-inf): read-out: AUC0-infinity (converted)
# Method: Figure 4 Pharmacokinetics of methylated catechin derivatives and their effects on the PK of PTX. BALB/c mice were i.v. injected with 10 mg/kg or i.p. injected with 30 mg/kg of modulators. At 10, 30, 60, 180, 420, 840, and 1080 min postadministration, animals were sacrificed to collect their blood, and then the plasma concentration of modulator was determined using UPLC-MS/MS. The % of bioavailability of each modulator injected through i.p. injection route was calculated by comparing it to its plasma level when injected via i.v. injection. […] (E) Pharmacokinetic (PK) profiles of 4 potent methylated catechin derivatives were summarized. (F) The effect of modulators (GC51, EC31, or C25) on the PK of PTX was firstly determined through i.p. injection of modulator at 30 mg/kg 1 h prior to i.v. injection of 12 mg/kg PTX. At 10, 30, 60, 120, 240, and 420 min postadministration of PTX, animals were sacrificed. Plasma level of PTX was quantified through LC/MSMS. The dashed line indicates the corresponding EC50 of modulator in vitro for reversing PTX resistance. […] There were 3 mice at each time point. All pharmacokinetic parameters were calculated with the pharmacokinetic software Summit® PK solution. Two-tailed test was conducted for the AUC value of PTX alone and cotreatment. […] N.S. = not significant. / = not applicable.
# In group 1, BALB/c mice were injected intravenously (i.v.) with 10 mg/kg of modulator, and their blood was collected at 10, 30, 60, 120, 240, and 480 min postadministration. In group 2, BALB/c mice were injected intraperitoneally (i.p.) with 30 mg/kg of modulator, and their blood was collected at 10, 30, 60, 180, 420, 840, and 1080 min postadministration.
# The pharmacokinetics of PTX was studied with or without the coadministered modulator. PTX (12 mg/kg i.v.) alone was injected into the BALB/c mice. For the combination study, modulator (30 mg/kg i.p.) was injected 1 h before injecting PTX (12 mg/kg i.v.). The blood was collected at 10, 30, 60, 120, 240, and 420 min after PTX administration. Blood samples were spun at 14,000 rpm for 10 min at 4 °C to collect plasma supernatant. Plasma concentration of methylated catechin derivatives or PTX was determined through UPLC-QQQ-MS as described in Section 4.9. Pharmacokinetic parameters were analyzed with PK Solutions 2.0 (Summit Research Service, Ashland, OH, USA).
# [2] = test system: P388ADR leukemia; test: In vivo efficacy in reversing DOX resistance in murine leukemia P388ADR model; parameters: species or system B6D2F1 mice
# Method: (§1) Irradiated BDF1 mice were i.p. inoculated with P388ADR cells, which caused mouse leukemia. Irradiated NOD/SCID mice were i.v. inoculated with K562/P-gp cells, which caused human leukemia. The mice were randomized and treated with (1) control treatment (no treatment), (2) DOX alone, and (3) EC31 + DOX. Treatments were given as indicated by the arrows. The number of mice deaths in each treatment group was recorded every day. (A) The percent survival of mice infected with P388ADR. (B) The percent survival of mice infected with K562/P-gp. The mice median survival days and the increased lifespan (ILS) were analyzed with Log-rank (Mantel–COX) test in Prism 5.0. Student’s paired t test was conducted as indicated. ** represents p < 0.01, and *** represents p < 0.001. N.S. = not significant.
# About 1 × 10^6 cells of P388ADR were i.p. inoculated in male B6D2F1 mice aged 5–7 weeks old. There were 3 groups: (1) control group with no treatment, (2) DOX (3 mg/kg i.p.) alone, and (3) cotreatment with EC31 (60 mg/kg i.p.) being injected 1 h prior to DOX (3 mg/kg i.p.) administration. In group 2, DOX was i.p. injected on days 2, 6, 10, 14, and 18 only. In group 3, EC31 was i.p. injected on days 1, 2, 5, 6, 9, 10, 13, 14, 17, and 18, and DOX was i.p. injected on days 2, 6, 10, 14, and 18. Before each treatment, 1.5 mg/mL of DOX was freshly prepared using PBS. Mice survival and body weight were monitored during the study period.
# [3] = test system: K562/P-gp leukemia; test: In vivo efficacy in reversing DOX resistance in human leukemia K562/P-gp model; parameters: species or system NOD/SCID mice
# Method: as §1
# The mice were randomly distributed into 3 groups: (1) control group (no treatment), (2) DOX (0.9 mg/kg i.v.) alone, and (3) cotreatment with EC31 (30 mg/kg i.p.) being injected 1 h prior to DOX (0.9 mg/kg i.v.) administration. EC31 and DOX were injected on days 7, 11, 19, 23, and 27. Before each treatment, 0.2 mg/mL of DOX was freshly prepared using PBS. Mice survival and body weight were monitored during the study period.
# [4] = test system: fibroblast cells; parameters: method as in PMID 25985195, PMID 34597896; conditions: cited from earlier work
# [5] = test system: P-gp; parameters: method as in PMID 25985195, PMID 34597896; conditions: cited from earlier work
# [6] = test system: P-gp; test: EC50 for reversing drug resistance in P388ADR cells (cell proliferation assay)
# Description: EC50 was defined as the concentration at which the modulator can reduce the IC50 of an anticancer drug by half in the P-gp-overexpressing cell lines. […] The P-gp-modulating activity of methylated catechin derivatives was further studied by measuring the EC50. […] Three P-gp-overexpressing cell lines were employed, including breast cancer cell line LCC6MDR, mouse leukemia cell line P388ADR, and human leukemia cell line K562/P-gp. The anticancer drugs tested included DOX, PTX, and VCR. All values were presented as mean ± standard error of mean. N = 3–6 independent experiments.
# About 6500 cells of LCC6MDR or 10,000 cells of P388ADR or K562/P-gp were seeded to each well of 96-well plate and were then incubated at 37 °C overnight. […] Cell viability was determined using CellTiter 96 AQueous Assay (Promega, Madison, WI, USA, #G1111) as reported previously [38]. The % of cell survival, IC50 of anticancer drugs towards the cell line, and EC50 of modulators were analyzed using nonlinear regression in Prism 5.0.
# [7] = biological target: P-gp (Homo sapiens, UniProt P08183); test: Intracellular EC31 or PTX accumulation in LCC6 versus LCC6MDR cells; type: cell-based; parameters: expressed in transfected cells; host or cells: MDA435/LCC6MDR (human breast cancer line, gift of Dr. Robert Clarke); conditions: from accumulation and efflux in cells with or without P-gp
# Description: N = 3 independent experiments.
# [8] = EC31 30 mg/kg i.p. + DOX 0.9 mg/kg i.v.
# Sequence of P-gp (Homo sapiens, UniProt P08183) (P08183 whole entry): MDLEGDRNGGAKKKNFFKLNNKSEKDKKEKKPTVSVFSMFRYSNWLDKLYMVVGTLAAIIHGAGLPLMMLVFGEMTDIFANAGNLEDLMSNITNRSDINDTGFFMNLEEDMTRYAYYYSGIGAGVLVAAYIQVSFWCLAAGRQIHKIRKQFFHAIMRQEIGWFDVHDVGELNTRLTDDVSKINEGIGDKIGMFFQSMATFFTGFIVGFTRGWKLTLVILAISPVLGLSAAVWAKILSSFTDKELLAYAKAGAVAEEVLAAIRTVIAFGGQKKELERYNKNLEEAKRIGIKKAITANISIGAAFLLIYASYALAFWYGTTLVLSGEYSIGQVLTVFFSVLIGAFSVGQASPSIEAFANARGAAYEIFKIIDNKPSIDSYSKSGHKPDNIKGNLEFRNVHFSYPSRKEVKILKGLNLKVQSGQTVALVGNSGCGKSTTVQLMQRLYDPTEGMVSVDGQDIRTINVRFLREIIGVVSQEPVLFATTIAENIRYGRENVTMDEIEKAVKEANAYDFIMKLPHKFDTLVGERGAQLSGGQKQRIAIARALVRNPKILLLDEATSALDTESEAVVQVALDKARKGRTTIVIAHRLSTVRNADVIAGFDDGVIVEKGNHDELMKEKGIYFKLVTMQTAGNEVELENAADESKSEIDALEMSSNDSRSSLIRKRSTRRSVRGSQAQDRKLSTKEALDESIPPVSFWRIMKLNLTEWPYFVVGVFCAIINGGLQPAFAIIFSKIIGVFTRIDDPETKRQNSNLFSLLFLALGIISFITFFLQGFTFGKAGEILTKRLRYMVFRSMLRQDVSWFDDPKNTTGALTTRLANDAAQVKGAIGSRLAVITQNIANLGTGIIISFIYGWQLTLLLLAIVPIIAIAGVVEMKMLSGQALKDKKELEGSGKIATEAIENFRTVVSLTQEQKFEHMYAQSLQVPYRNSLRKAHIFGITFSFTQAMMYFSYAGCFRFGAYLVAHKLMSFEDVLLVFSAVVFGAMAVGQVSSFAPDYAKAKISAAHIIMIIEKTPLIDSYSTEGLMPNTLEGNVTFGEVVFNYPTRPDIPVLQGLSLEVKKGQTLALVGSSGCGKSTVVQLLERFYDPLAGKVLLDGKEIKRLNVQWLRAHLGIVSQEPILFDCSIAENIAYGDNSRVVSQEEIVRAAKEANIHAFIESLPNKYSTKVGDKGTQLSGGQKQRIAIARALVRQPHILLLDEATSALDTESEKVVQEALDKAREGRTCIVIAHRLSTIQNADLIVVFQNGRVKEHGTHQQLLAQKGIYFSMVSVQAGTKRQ
structure (smiles),measurement,setting,value
COc1cc(OC)c2c(c1)O[C@H](c1ccc(OC)c(OC)c1)[C@H](OC(=O)c1ccc(F)c(NC(=O)c3cc(OC)c(OC)c(OC)c3)c1)C2 [EC31],AUC(0-t),"[1]; ip, 30 mg/kg",17800 ng·h/mL
same,Cmax,"[1]; ip, 30 mg/kg",5610 ng/mL
same,Tmax,"[1]; ip, 30 mg/kg",1 h
same,half-life,"[1]; ip, 30 mg/kg",3.33 h
same,AUC(0-inf),"[1]; ip, 30 mg/kg",18400 ng·h/mL
same,AUC(0-t),"[1]; iv, 10 mg/kg",7240 ng·h/mL
same,half-life,"[1]; iv, 10 mg/kg",0.912 h
same,AUC(0-inf),"[1]; iv, 10 mg/kg",7290 ng·h/mL
same,median survival,[2]; EC31 60 mg/kg i.p. + DOX 3 mg/kg i.p.,21.5 days
same,ILS% (increase in lifespan),[2]; EC31 60 mg/kg i.p. + DOX 3 mg/kg i.p. compared to DOX alone,30.3%
same,median survival time,[3]; [8],37.0 days
same,prolongation of animal survival compared to DOX alone,[3]; [8],5 days
same,ILS% (increase in lifespan),[3]; EC31 30 mg/kg i.p. + DOX 0.9 mg/kg i.v. compared to DOX alone,15.6%
same,IC50,[4],> 100000 nM
same,effect on plasma membrane level of P-gp,[5],did not affect
same,EC50,"[6]; read-out: EC50 for Reversing MDR, DOX Resistance, P388ADR, concentration that reduces IC50 of DOX by half",186 ± 31 nM
same,EC50,"[6]; read-out: EC50 for Reversing MDR, PTX Resistance, P388ADR, concentration that reduces IC50 of PTX by half",249 ± 18 nM
same,P-gp transport substrate status,[7],not a transport substrate of P-gp
